The series can be described thus: A: acetonitrile + 0.1% formic acid + 10 mM ammonium formate; B: 5% water + 95% acetonitrile + 0.1% formic acid + 10 mM ammonium formate; gradient (min/%B) 0/10 2/10 22/100 27/100 27.1/10. As to conditions: stereoisomer not certain.

Consider 82 compounds from the RepoRT retention time repository.

As to `O=C1CC[C@@H](C(=O)O)N1` [L-Pyroglutamic acid], the LC retention time was 6.81 min.

Take `CC(=O)NC(Cc1c[nH]c2ccccc12)C(=O)O` (racemic) [N-Acetyl-DL-Tryptophan]: the LC retention time turned out to be 1.32 min.

For the compound `COc1ccc2[nH]cc(CCN)c2c1` [5-Methoxytryptamine], the LC retention time amounted to 2.21 min.

Turning to `CC(CN1c2ccccc2Sc2ccccc21)N(C)C` (configuration not stated) [Promethazine], the LC retention time is 0.952 min.

Regarding `O=c1[nH]c(=O)c2ncn(C3OC(CO)C(O)C3O)c2[nH]1` (configuration not stated) [Xanthosine], the LC retention time is 5.1 min.

`CC(C)[C@H](NC(=O)CN)C(=O)O` [Glycyl-L-valine]: the LC retention time came to 6.02 min.

`O=C(C=Cc1ccccc1)OCc1ccccc1` [Benzyl cinnamate]: the LC retention time worked out at 0.413 min.

Consider `NCC(=O)N[C@@H](Cc1ccc(O)cc1)C(=O)O` [Glycyl-L-tyrosine], for which the LC retention time was determined as 5.97 min.

For the compound `Nc1ccnc(=O)[nH]1` [Cytosine], the LC retention time is 3.35 min.

In the case of `CC1(C)SC2C(NC(=O)C(N)c3ccc(O)cc3)C(=O)N2C1C(=O)O` (configuration not stated) [Amoxicillin], the LC retention time is 5.79 min.

As to `O=P(O)(O)OCC1OC(O)C(O)C1O` [D-Ribose 5-phosphate], the LC retention time was 7.12 min.

For `NC(=O)CCC(NC(=O)Cc1ccccc1)C(=O)O` (configuration not stated) [Phenyl-Ac-Gln-OH], the LC retention time came to 3.83 min.

As to `CCOC(=O)CCC(=O)OCC` [Diethyl succinate], the LC retention time amounted to 0.425 min.

In the case of `Nc1nc2c(ncn2COC(CO)CO)c(=O)[nH]1` [Ganciclovir], the LC retention time was found to be 4.73 min.

`NCC(O)CCC(N)C(=O)O` (racemic) [DL-5-Hydroxylysine]: the LC retention time was determined as 7.93 min.

With `OCC1OC(OCC2OC(O)C(O)C(O)C2O)C(O)C(O)C1O` (configuration not stated) [Melibiose], the LC retention time was found to be 7.08 min.

Regarding `O=C(O)c1ccccc1C(=O)O` [Phthalic acid], the LC retention time came out at 0.963 min.

In the case of `NCC(O)c1ccc(O)cc1` (configuration not stated) [Octopamine], the LC retention time is 3.85 min.

For the compound `Nc1ncnc2c1ncn2C1OC2COP(=O)(O)OC2C1O` (configuration not stated) [Adenosine cyclophosphate], the LC retention time was 5.66 min.

Turning to `OCC1OC(OCC2OC(OC3(CO)OC(CO)C(O)C3O)C(O)C(O)C2O)C(O)C(O)C1O` [D-(+)-Raffinose], the LC retention time came to 7.42 min.

`Cc1ccc(S(=O)(=O)NC(=O)NN2CC3CCCC3C2)cc1` (configuration not stated) [Gliclazide]: the LC retention time stood at 0.423 min.

In the case of `O=C(O)c1ccccn1` [2-Picolinic acid], the LC retention time worked out at 3.08 min.

In the case of `COc1ccc2[nH]cc(CCNC(C)=O)c2c1` [Melatonin], the LC retention time was determined as 0.468 min.

For the compound `N[C@@H](Cc1ccc(O)c([N+](=O)[O-])c1)C(=O)O` [3-Nitro-L- tyrosine], the LC retention time stood at 4.76 min.

Consider `Nc1nc2[nH]c(=O)cnc2c(=O)[nH]1` [Isoxanthopterin], for which the LC retention time came out at 4.02 min.

For the compound `COc1ccc(C2Sc3ccccc3N(CCN(C)C)C(=O)C2OC(C)=O)cc1` (configuration not stated) [Diltiazem], the LC retention time amounted to 1.04 min.

Consider `O=C(O)CCCCCCC(=O)O` [Suberic acid], for which the LC retention time is 0.712 min.

For `O=C(c1ccc(OCCN2CCCCC2)cc1)c1c(-c2ccc(O)cc2)sc2cc(O)ccc12` [Raloxifene], the LC retention time amounted to 1.42 min.

On to `COC(=O)C(Cc1ccccc1)NC(=O)C(N)CC(=O)O` (configuration not stated) [Aspartame], for which the LC retention time stood at 4 min.

As to `COc1ccc(C2CC(=O)c3c(O)cc(OC4OC(COC5OC(C)C(O)C(O)C5O)C(O)C(O)C4O)cc3O2)cc1O` (configuration not stated) [Hesperidin], the LC retention time is 2.97 min.

In the case of `CC(=O)N[C@@H](CC(C)C)C(=O)O` [N-Acetyl-L-leucine], the LC retention time worked out at 1.18 min.

As to `O=C(O)COCCN1CCN(C(c2ccccc2)c2ccc(Cl)cc2)CC1` (configuration not stated) [Cetirizine], the LC retention time was 1.33 min.

Regarding `NC(Cc1cc(I)c(Oc2ccc(O)c(I)c2)c(I)c1)C(=O)O` (stereo not drawn) [3,3',5-Triiodo-l-thyronine], the LC retention time turned out to be 3.5 min.

With `O=c1[nH]c(=O)c2[nH]cnc2[nH]1` [Xanthine], the LC retention time came to 2.92 min.

As to `N[C@H](CO)Cc1cnc[nH]1` [L-Histidinol], the LC retention time was 7.05 min.

Consider `CCN(CC)CCCC(C)Nc1c2ccc(Cl)cc2nc2ccc(OC)cc12` (configuration not stated) [Quinacrine], for which the LC retention time was 3.99 min.

As for `CNC(CC(C)C)C(=O)NC1C(=O)NC(CC(N)=O)C(=O)NC2C(=O)NC3C(=O)NC(C(=O)NC(C(=O)O)c4cc(O)cc(O)c4-c4cc3ccc4O)C(O)c3ccc(c(Cl)c3)Oc3cc2cc(c3OC2OC(CO)C(O)C(O)C2OC2CC(C)(N)C(O)C(C)O2)Oc2ccc(cc2Cl)C1O` (configuration not stated) [Vancomycin], the LC retention time was 8.2 min.

As to `COc1cc(C=O)ccc1O` [Vanillin], the LC retention time was determined as 0.435 min.

For `Cc1ncc(CO)c(CN)c1O` [Pyridoxamine], the LC retention time came out at 6.5 min.

Turning to `COc1cc(O)cc(OC)c1` [3,5-Dimethoxyphenol], the LC retention time was found to be 0.433 min.

`CC(C)(N)C(=O)O` [2-Aminoisobutyric acid]: the LC retention time came out at 5.89 min.

For `CCc1ccc(CCOc2ccc(CC3SC(=O)NC3=O)cc2)nc1` (configuration not stated) [Pioglitazone], the LC retention time was determined as 0.47 min.

On to `Cn1c(=O)c2[nH]cnc2n(C)c1=O` [Theophylline], for which the LC retention time was 0.596 min.

In the case of `NC(=O)c1ccccc1O` [Salicylamide], the LC retention time worked out at 0.448 min.

Consider `CN(C)CCC=C1c2ccccc2COc2ccccc21` [Doxepin], for which the LC retention time came out at 1.04 min.

On to `CCC1C(=O)OCC1Cc1cncn1C` (configuration not stated) [Pilocarpine], for which the LC retention time turned out to be 1.22 min.

As to `CSCC[C@H](NC=O)C(=O)O` [N-Formyl-L-methionine], the LC retention time is 2.34 min.

Consider `c1ncc2[nH]cnc2n1` [Purine], for which the LC retention time is 1.01 min.

With `CC(=O)c1cnccn1` [2-Acetylpyrazine], the LC retention time turned out to be 0.441 min.

Consider `CCCOC(=O)c1cc(O)c(O)c(O)c1` [Propyl gallate], for which the LC retention time was 0.478 min.

As for `CNC(=C[N+](=O)[O-])NCCSCc1csc(CN(C)C)n1` [Nizatidine], the LC retention time is 3.03 min.

In the case of `CNCC(O)c1ccc(O)cc1` (configuration not stated) [Synephrine], the LC retention time was found to be 3.2 min.

On to `Nc1ccccc1C(=O)CC(N)C(=O)O` [L-Kynurenine], for which the LC retention time is 4.67 min.

Regarding `Cc1ncc(CO)c(CO)c1O` [Pyridoxine], the LC retention time is 1.92 min.

On to `O=C(O)CCCCCCCC(=O)O` [Azelaic acid], for which the LC retention time worked out at 0.604 min.

Regarding `CC(CCC(=O)NCCS(=O)(=O)O)C1CCC2C3C(O)CC4CC(O)CCC4(C)C3CCC12C` (configuration not stated) [Tauroursodeoxycholic acid], the LC retention time worked out at 2.7 min.

Take `CN(CC(=O)O)C(=N)N` [Creatine]: the LC retention time stood at 6.15 min.

In the case of `CNCCC(Oc1ccccc1C)c1ccccc1` (configuration not stated) [Atomoxetine], the LC retention time was determined as 1.02 min.

For `O=C(O)Cc1cnc[nH]1` [Imidazole-4(5)-acetic Acid], the LC retention time was 6.1 min.

`CC(=O)OCC(=O)C12OC3(CCCC3)OC1CC1C3CCC4=CC(=O)C=CC4(C)C3(F)C(O)CC12C` (configuration not stated) [Amcinonide]: the LC retention time stood at 0.433 min.

As for `CSCC[C@H](NC(C)=O)C(=O)O` [N-Acetyl-L-methionine], the LC retention time stood at 1.97 min.

As for `NCCCNCCCCNCCCN` [Spermine], the LC retention time came to 9.6 min.

For `CCCCCCCCCCCCCC(=O)OCC(COP(=O)(O)OCCN)OC(=O)CCCCCCCCCCCCC` (configuration not stated) [1,2-Dimyristoyl-sn-glycero-3-phosphoethanolamine], the LC retention time was 2.44 min.

On to `CN(C)CCCN1c2ccccc2Sc2ccc(Cl)cc21` [Chlorpromazine], for which the LC retention time is 1 min.

As for `COc1ccc2nc(S(=O)Cc3ncc(C)c(OC)c3C)[nH]c2c1` (configuration not stated) [Omeprazole], the LC retention time came to 0.484 min.

With `NC(N)=NCCC[C@H](N)C(=O)O` [L-Arginine], the LC retention time amounted to 7.48 min.

Regarding `CC(=O)NCC(=O)O` [N-Acetylglycine], the LC retention time came out at 5.64 min.

Regarding `CC(=O)NCCCCCN` [N-(5-Aminopentyl)acetamide], the LC retention time turned out to be 4.61 min.

For the compound `O=C(O)Cc1ccccc1Nc1c(Cl)cccc1Cl` [Diclofenac acid], the LC retention time came to 0.456 min.

In the case of `O=C(C=CC=Cc1ccc2c(c1)OCO2)N1CCCCC1` [Piperine], the LC retention time came to 0.44 min.

Consider `CCC(C)C(=O)OC1CC(C)C=C2C=CC(C)C(CCC3CC(O)CC(=O)O3)C21` (configuration not stated) [Lovastatin], for which the LC retention time was 0.419 min.

Turning to `COc1ccccc1C=CC=O` [2-Methoxycinnamaldehyde], the LC retention time was determined as 0.436 min.

Turning to `CCCCC1=NC2(CCCC2)C(=O)N1Cc1ccc(-c2ccccc2-c2nn[nH]n2)cc1` [Irbesartan], the LC retention time is 0.475 min.

In the case of `N[C@@H](Cc1c[nH]c2ccc(O)cc12)C(=O)O` [L-5-Hydroxytryptophan], the LC retention time was 5.36 min.

For `OCC1OC(OC2C(CO)OC(OC3C(CO)OC(O)C(O)C3O)C(O)C2O)C(O)C(O)C1O` (configuration not stated) [Maltotriose], the LC retention time is 7.44 min.

Consider `NCC(N)C(=O)O` (racemic) [DL-2,3-Diaminopropionic acid], for which the LC retention time was found to be 7.79 min.

Turning to `C=CC1=C(C)C(=Cc2[nH]c(Cc3[nH]c(C=C4NC(=O)C(C)=C4C=C)c(C)c3CCC(=O)O)c(CCC(=O)O)c2C)NC1=O` [Bilirubin], the LC retention time was 0.518 min.

Consider `CC(C=CC=C(C)C=CC1=C(C)CCCC1(C)C)=CC=O` [All trans-Retinal], for which the LC retention time was 0.407 min.

Turning to `NC(N)=NCCCC[C@H](N)C(=O)O` [L-Homoarginine], the LC retention time came out at 7.39 min.

Take `CN(C)CCCC1(c2ccc(F)cc2)OCc2cc(C#N)ccc21` (configuration not stated) [Citalopram]: the LC retention time amounted to 0.991 min.

`Cc1ccccc1C(=O)NCC(=O)O` [2-Methylhippuric acid]: the LC retention time was determined as 3.28 min.

Consider `Cn1cnc2c1c(=O)[nH]c(=O)n2C` [Theobromine], for which the LC retention time is 0.687 min.
